Results published in patent US20230337677A1, “ARYL AND PYRIDYL AMIDE PESTICIDES AND COMPOSITIONS THEREOF” (University of Florida Research Foundation, Incorporated, priority 2019, published 2023).

Assays:
[1] = test system: Anopheles gambiae G3 sensitive strain; test: Topical toxicity (24 hour mortality), An. gambiae G3; type: in vivo; conditions: topical application, 24 h mortality, female adults, susceptible strain G3
Procedure, shortened: (§1)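 Females aged 3–6 days received 200 nL of compound in ethanol topically on the thorax, 10 per concentration per replicate, and were kept at 28° C with sugar water.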

[2] = test system: Aedes aegypti and Anopheles gambiae female adults; test: Analysis of topical toxicity (statements in words, species not given); type: in vivo; conditions: structure-activity analysis of Table 4
Method: (§2) The Aedes aegypti strains Orlando (sensitive) as well as the Puerto Rico (PR, resistant to permethrin) were used. The Anopheles gambiae (G3 sensitive strain, as well as Akron kdr (Akdr) strain, resistant to pyrethroids were also assessed. The larvae were provided by the USDA, Gainesville Fl, and raised in a pan with tap water maintained at 28° C. Larvae were fed a ground liver and yeast mixture, and pupae were placed in emergence cages. Adults were held at 28° C. and provided with cotton balls soaked in 10% sugar water for rearing and for all bioassays.
Female adults from 3 to 6 days were used for the experiments. The drug was dissolved in ethanol and then applied with a micro-applicator on the thorax, between the legs: 200 nL of drug per female mosquito, with different concentrations of the drug; 10 mosquitos were treated together per concentration per replicate, and put together in a small container with free access to sweet water. Mortality, i.e. no visible movement, was assessed 24 hours after treatment. Every compound was assessed on at least 3 different cohorts of mosquitoes, and the LD50 values and slopes were determined with Probit analysis, corrected with Abbott's formula. […]

[3] = test system: Anopheles gambiae Akron kdr (Akdr) strain, resistant to pyrethroids; test: Topical toxicity (24 hour mortality), An. gambiae Akdr; type: in vivo; conditions: for An. gambiae RR (resistance ratio): 24 h LD50 resistant strain (AKDR)/24 h LD50 susceptible strain (G3); for An. gambiae AKDR LD50: topical application, 24 h mortality, female adults, pyrethroid-resistant Akdr strain
Procedure, shortened: as §1

[4] = test system: Aedes aegypti strain Puerto Rico (PR, resistant to permethrin); test: Topical toxicity (24 hour mortality), Ae. aegypti Puerto Rico; type: in vivo; conditions: for Ae. aegypti RR (resistance ratio): 24 h LD50 resistant strain (PR)/24 h LD50 susceptible strain (OR); for Ae. aegypti PR LD50: topical application, 24 h mortality, female adults, permethrin-resistant Puerto Rico strain
Method: as §2
Female adults from 3 to 6 days were used for the experiments. The drug was dissolved in ethanol and then applied with a micro-applicator on the thorax, between the legs: 200 nL of drug per female mosquito, with different concentrations of the drug; 10 mosquitos were treated together per concentration per replicate, and put together in a small container with free access to sweet water. Mortality, i.e. no visible movement, was assessed 24 hours after treatment. Every compound was assessed on at least 3 different cohorts of mosquitoes, and the LD50 values and slopes were determined with Probit analysis, corrected with Abbott's formula.

[5] = test system: Aedes aegypti strain Orlando (sensitive); test: Topical toxicity (24 hour mortality), Ae. aegypti Orlando; type: in vivo; conditions: topical application, 24 h mortality, female adults, susceptible Orlando strain
Procedure, shortened: as §1

[6] = test system: Aedes aegypti mosquitoes, insecticide-susceptible Orlando strain; type: in vivo; conditions: for 1 h % Repellency, 100 μg/cm^2: screened at 100 μg/cm^2, strain not given; for 1 h Repellency EC50, μg/cm^2: (OR)
Procedure, shortened: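 Sixteen female mosquitoes per glass tube facing netting-shielded filter paper treated with acetone solutions (30-0.01 μg/ml; screen at 100 μg/cm^2), no contact. Proportion on treated side scored up to 60 min, then flight-out checked 30 min; mortality after 24 hr constant exposure.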

[7] = test system: Aedes aegypti mosquitoes, insecticide-susceptible Orlando strain; test: whole plant or invertebrate; conditions: 24 h, read-out: 24 h % Mortality, 100 μg/cm^2
[8] = test system: Aedes aegypti mosquitoes, pyrethroid-resistant Puerto Rico strain; test: Vapor repellency glass tube assay (1 h), resistant strain; type: in vivo; conditions: with resistance ratio (PR)
[9] = test system: Aedes aegypti mosquitoes, insecticide-susceptible Orlando strain; conditions: for 24 h LC50, μg/cm^2: LC50 (OR)
[10] = test system: Aedes aegypti mosquitoes, pyrethroid-resistant Puerto Rico strain; test: Vapor toxicity (24 h lethality under constant exposure in glass tubes), resistant strain; conditions: LC50, with resistance ratio (PR)

Row | SMILES | An. gambiae G3 LD50 [1] | topical toxicity, statement in words (Example 10) [2] | An. gambiae AKDR LD50 [3] | Ae. aegypti OR LD50 [5] | 1 h % Repellency, 100 μg/cm^2 [6] | mortality at 100 µg/cm2 [7] | 1 h Repellency EC50, μg/cm^2 (RR) [8] | 1 h Repellency EC50, μg/cm^2 [6] | 24 h LC50, μg/cm^2 [9] | 24 h LC50, μg/cm^2 (RR) [10] | further results
1 | O=C(Nc1cc(Cl)nc(Cl)c1)C(F)(C(F)(F)F)C(F)(F)F [GMR053] | 5.8 ng/mg | retained high mortality | 2.7 ng/mg | 17 ng/mg |  |  |  |  |  |  | An. gambiae RR (resistance ratio) [3]: 0.5; Ae. aegypti RR (resistance ratio) [4]: 0.4; Ae. aegypti PR LD50 [4]: 7.10 ng/mg
2 | O=C(NC(=O)c1cc(Cl)nc(Cl)c1)c1cc(Cl)nc(Cl)c1 [GMR117] |  | reduced activity |  | >1500 ng/mg | 62% | 100% |  |  |  |  | vapor repellency / mortality, statement in words (Example 8) ([6]; structure-activity analysis of Table 2): some repellency and mortality
3 | CC(=O)Nc1ccccc1C(F)(F)F [MTFI-1-4A] |  |  |  |  | 78% |  | 81 μg/cm^2 | 26 μg/cm^2 |  |  | 
4 | O=C(Nc1cc(Cl)nc(Cl)c1)C(F)(F)C(F)(F)C(F)(F)F [GMR031] | 8.0 ng/mg |  | 6.7 ng/mg | 34 ng/mg | 34% | 98% |  |  | 25 μg/cm^2 | 22 μg/cm^2 | An. gambiae RR (resistance ratio) [3]: 0.8; Ae. aegypti RR (resistance ratio) [4]: 0.9; Ae. aegypti PR LD50 [4]: 31 ng/mg
5 | O=C(Nc1cc(C(F)(F)F)cc(C(F)(F)F)c1)C(F)F [MTFI-4-2B] |  |  |  |  | 100% | 88% | 24 μg/cm^2 | 15 μg/cm^2 |  |  | 
6 | CCN(CC)C(=O)c1cccc(C)c1 [DEET, N,N-diethyl-m-toluamide, reference compound] |  |  |  |  |  |  | 79 μg/cm^2 | 35 μg/cm^2 |  |  | response in glass tube assay (FIG. 1) ([6]; representative response, in words): Mosquitoes moved away from the DEET treated side
7 | C/C=C/C1C(C(=O)OCc2c(F)c(F)c(COC)c(F)c2F)C1(C)C (centres unmarked) [Metofluthrin, metofluthrin, reference compound] |  |  |  |  |  |  | 12 μg/cm^2 | 0.3 μg/cm^2 | 0.84 μg/cm^2 | 43 μg/cm^2 | 
8 | CC1(C)[C@H](C=C(Cl)Cl)[C@H]1C(=O)OCc1c(F)c(F)cc(F)c1F [Transfluthrin, transfluthrin, reference compound] |  |  |  |  |  |  | 2.3 μg/cm^2 | 0.5 μg/cm^2 | 0.16 μg/cm^2 | 7.6 μg/cm^2 | 
9 | C/C=C\C[C@H]1C(=O)CC[C@@H]1CC(=O)Nc1cc(F)c(F)c(F)c1 [GMR098] | >1000 ng/mg | reduced toxicity | >1000 ng/mg | >6000 ng/mg | 18% |  |  |  |  |  | 24 h % Mortality, 100 μg/cm^2 ([9]; in vivo): 0%
10 | O=C(Nc1cc(F)c(F)c(F)c1)C(F)(F)C(F)(F)C(F)(F)F [MTFI-5-3A, 2,2,3,3,4,4,4-heptafluoro-N-(3,4,5-trifluorophenyl)butanamide] |  |  |  |  | 68% | 100% | 4.5 μg/cm^2 | 2.9 μg/cm^2 | 13 μg/cm^2 | 11 μg/cm^2 | repellency EC50, compound alone ([6]; alone, FIG. 3 / FIG. 4): 2.9 μg/cm^2
